# Data published in ChEMBL document CHEMBL1139310, “Lead identification to generate 3-cyanoquinoline inhibitors of insulin-like growth factor receptor (IGF-1R) for potential use in cancer treatment” (Bioorg Med Chem Lett, 2009).
# Test system: not listed separately
# Assay: Aqueous solubility at pH 7.4
# Assay type: physicochemical
row,SMILES,solubility [µg/mL]
1,CCN1CCN(CCCOc2cc3ncc(C#N)c(Nc4ccc(Sc5nc(C)c(C)n5CC)c(Cl)c4)c3cc2OC)CC1,2000

# Test system: not listed separately
# Assay: Selectivity ratio of IC50 for GST-IR to IC50 for GST-IGF1R
row,SMILES,Ratio IC50
1,CCN1CCN(CCCOc2cc3ncc(C#N)c(Nc4ccc(Sc5nc(C)c(C)n5CC)c(Cl)c4)c3cc2OC)CC1,0.17

# Target: Insulin-like growth factor 1 receptor (Homo sapiens, UniProt P08069)
# Sequence (P08069 31-736 limits assumed): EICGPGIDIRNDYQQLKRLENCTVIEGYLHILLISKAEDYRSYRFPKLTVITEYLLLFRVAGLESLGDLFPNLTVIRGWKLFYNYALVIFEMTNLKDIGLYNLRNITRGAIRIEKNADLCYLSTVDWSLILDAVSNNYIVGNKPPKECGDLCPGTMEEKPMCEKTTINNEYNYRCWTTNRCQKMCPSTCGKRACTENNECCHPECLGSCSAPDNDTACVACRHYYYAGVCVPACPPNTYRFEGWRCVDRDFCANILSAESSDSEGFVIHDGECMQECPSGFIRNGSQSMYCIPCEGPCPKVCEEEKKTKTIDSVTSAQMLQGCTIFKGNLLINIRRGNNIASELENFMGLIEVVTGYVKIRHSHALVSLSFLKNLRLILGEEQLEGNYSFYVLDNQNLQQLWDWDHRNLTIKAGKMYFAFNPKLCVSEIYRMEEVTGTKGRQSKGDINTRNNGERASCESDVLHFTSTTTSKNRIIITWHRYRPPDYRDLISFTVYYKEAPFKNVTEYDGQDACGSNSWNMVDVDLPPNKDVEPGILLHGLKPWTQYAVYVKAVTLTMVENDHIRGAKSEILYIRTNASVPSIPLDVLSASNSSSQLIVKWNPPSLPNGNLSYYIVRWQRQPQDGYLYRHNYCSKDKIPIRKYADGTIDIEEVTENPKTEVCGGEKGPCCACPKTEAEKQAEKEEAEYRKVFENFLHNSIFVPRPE
# Sequence (P08069 741-1367 limits assumed): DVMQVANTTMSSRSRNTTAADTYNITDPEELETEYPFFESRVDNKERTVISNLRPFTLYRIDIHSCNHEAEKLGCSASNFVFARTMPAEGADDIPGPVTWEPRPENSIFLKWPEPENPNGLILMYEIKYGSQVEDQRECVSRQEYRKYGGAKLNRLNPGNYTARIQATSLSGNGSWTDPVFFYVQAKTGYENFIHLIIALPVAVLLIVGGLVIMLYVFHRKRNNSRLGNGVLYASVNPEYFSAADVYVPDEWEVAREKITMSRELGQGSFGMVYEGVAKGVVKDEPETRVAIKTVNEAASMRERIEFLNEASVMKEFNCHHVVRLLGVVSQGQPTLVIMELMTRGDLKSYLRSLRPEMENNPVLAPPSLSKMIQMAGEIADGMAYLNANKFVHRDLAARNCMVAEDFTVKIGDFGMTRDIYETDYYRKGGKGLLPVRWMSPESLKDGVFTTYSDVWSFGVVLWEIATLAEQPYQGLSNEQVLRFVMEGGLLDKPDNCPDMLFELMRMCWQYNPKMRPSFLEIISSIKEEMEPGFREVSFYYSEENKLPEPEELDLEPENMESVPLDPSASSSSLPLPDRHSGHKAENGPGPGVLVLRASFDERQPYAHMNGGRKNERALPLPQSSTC
# Assay: Inhibition of GST-IGF1R
row,SMILES,IC50 [nM]
1,CCn1c(Sc2ccc(Nc3c(C#N)cnc4cc(OCCCNS(C)(=O)=O)c(OC)cc34)cc2Cl)nc(C)c1C,31
2,COc1cc2c(Nc3ccc(Sc4nccn4C)c(Cl)c3)c(C#N)cnc2cc1N1CCN(C)CC1,600
3,COc1cc2c(Nc3ccc(Sc4ccccc4O)cc3)c(C#N)cnc2cc1OCCCN1CCOCC1,1090
4,CCn1c(Sc2ccc(Nc3c(C#N)cnc4cc(NCCCc5ccccc5)c(OC)cc34)cc2Cl)nc(C)c1C,13700
5,CCn1c(Sc2ccc(Nc3c(C#N)cnc4cc(OCCCN5CCOCC5)c(OC)cc34)cc2Cl)nc(C)c1C,15
6,CCn1c(Sc2ccc(Nc3c(C#N)cnc4cc(NCCCN(CCO)CCO)c(OC)cc34)cc2Cl)nc(C)c1C,26
7,COc1cc2c(Nc3ccc(Sc4ccccn4)c(Cl)c3)c(C#N)cnc2cc1OCCCN1CCOCC1,> 10000
8,CCOC(=O)NN1CCN(CCCOc2cc3ncc(C#N)c(Nc4ccc(Sc5nc(C)c(C)n5CC)c(Cl)c4)c3cc2OC)CC1,17
9,CCn1c(Sc2ccc(Nc3c(C#N)cnc4cc(NCCCN5CCOCC5)c(OC)cc34)cc2Br)nc(C)c1C,20
10,CCNC(=O)N1CCN(CCCOc2cc3ncc(C#N)c(Nc4ccc(Sc5nc(C)c(C)n5CC)c(Cl)c4)c3cc2OC)CC1,45
11,CCC1CCCCN1CCCOc1cc2ncc(C#N)c(Nc3ccc(Sc4nc(C)c(C)n4CC)c(Cl)c3)c2cc1OC (stereo not given),32
12,CCn1c(Sc2ccc(Nc3c(C#N)cnc4cc(NCCCN5CCN(C)CC5)c(OC)cc34)cc2Cl)nc(C)c1C,16
13,COc1cc2c(Nc3ccc(Sc4nccn4C)c(Cl)c3)c(C#N)cnc2cc1NCCCN(C)C,151
14,COc1cc2c(Nc3ccc(Sc4nccn4C)c(Cl)c3)c(C#N)cnc2cc1OCCCN1CCOCC1,66
15,CCN1CCN(CCCOc2cc3ncc(C#N)c(Nc4ccc(Sc5nc(C)c(C)n5CC)c(Cl)c4)c3cc2OC)CC1,9
16,CCC(=O)C1CCN(CCCOc2cc3ncc(C#N)c(Nc4ccc(Sc5nc(C)c(C)n5CC)c(Cl)c4)c3cc2OC)CC1,135
17,COc1cc2c(Nc3ccc(Sc4nccn4C)c(Cl)c3)c(C#N)cnc2cc1N(C)CCCN(C)C,150
18,COc1cc2c(Nc3ccc(Sc4nccn4C)cc3)c(C#N)cnc2cc1OCCCN1CCOCC1,1000
